IC50 data for 14 compounds are collected here from patent US12435092B2, “Substituted imidazo[1,2-A]quinazolines as inhibitors of PARG” (858 Therapeutics, Inc., priority 2022, dated 2025).

pIC50: −log10 of the molar value.

T1 sequence (Q86W56 whole entry): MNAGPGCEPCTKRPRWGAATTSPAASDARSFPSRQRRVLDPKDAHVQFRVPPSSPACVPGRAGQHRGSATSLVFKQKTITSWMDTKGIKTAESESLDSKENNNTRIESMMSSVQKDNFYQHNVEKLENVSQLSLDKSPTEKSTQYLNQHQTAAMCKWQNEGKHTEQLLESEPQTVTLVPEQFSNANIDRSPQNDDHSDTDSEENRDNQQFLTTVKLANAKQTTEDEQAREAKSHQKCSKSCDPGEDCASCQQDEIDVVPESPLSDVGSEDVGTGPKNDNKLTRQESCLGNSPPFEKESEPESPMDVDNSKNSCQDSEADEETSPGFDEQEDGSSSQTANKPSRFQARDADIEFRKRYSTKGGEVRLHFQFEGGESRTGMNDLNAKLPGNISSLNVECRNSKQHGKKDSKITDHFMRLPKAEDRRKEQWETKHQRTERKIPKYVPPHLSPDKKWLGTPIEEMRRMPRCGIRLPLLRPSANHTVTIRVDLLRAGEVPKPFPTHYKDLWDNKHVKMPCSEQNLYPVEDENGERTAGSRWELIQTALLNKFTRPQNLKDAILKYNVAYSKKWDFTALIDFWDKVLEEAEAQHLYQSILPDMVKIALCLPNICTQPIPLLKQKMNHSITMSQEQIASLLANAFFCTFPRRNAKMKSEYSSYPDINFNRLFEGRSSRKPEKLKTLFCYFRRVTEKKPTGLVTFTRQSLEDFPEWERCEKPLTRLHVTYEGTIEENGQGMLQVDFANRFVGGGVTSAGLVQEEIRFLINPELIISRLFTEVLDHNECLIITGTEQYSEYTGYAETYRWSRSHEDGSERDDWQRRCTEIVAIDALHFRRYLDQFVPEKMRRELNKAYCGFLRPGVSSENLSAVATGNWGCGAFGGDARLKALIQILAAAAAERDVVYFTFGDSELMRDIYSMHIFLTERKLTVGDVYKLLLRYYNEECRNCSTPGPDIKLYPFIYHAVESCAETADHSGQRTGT

This test has as its target T1, cellular PARG (Homo sapiens, UniProt Q86W56).
T1 construct: endogenous in cells; host or cells: HeLa
The test is described as follows: Nuclear PAR accumulation assay (immunofluorescence high-content imaging). It is filed as cell-based. The following applies: HeLa cells, 1 hour compound treatment then MMS 50 μg/mL for an additional hour. A digest of the protocol: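 HeLa cells pretreated 1 h at 37 °C with compound, then 1 h with 50 μg/mL MMS (final), methanol-fixed and immunostained for PAR with DAPI nuclear counterstain. Nuclear PAR intensity and percent PAR-positive cells quantified by high-content imaging (≥1,000 cells/well). IC50 by four-parameter logistic fit, normalized to 0.1% DMSO and reference-compound controls.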
`[2H]C([2H])(c1cnn2c1CCC2)N1C(=O)c2cc(S(=O)(=O)NC3(C)CC3)ccc2N2C1=NC[C@H]2C` [Example 122, (R)-4-(dideutero(5,6-dihydro-4H-pyrrolo[1,2-b]pyrazol-3-yl)methyl)-1-methyl-N-(1-methylcyclopropyl)-5-oxo-1,2,4,5-tetrahydroimidazo[1,2-a]quinazoline-7-sulfonamide] gave a negative-log IC50 (pIC50) of at least 7.00. `C[C@@H]1CN=C2N(Cc3cnn(C)c3)C(=O)c3cc(S(=O)(=O)NC4(C)CC4)cc(Cl)c3N21` [Example 124, (R)-9-chloro-1-methyl-4-((1-methyl-1H-pyrazol-4-yl)methyl)-N-(1-methylcyclopropyl)-5-oxo-1,2,4,5-tetrahydroimidazo[1,2-a]quinazoline-7-sulfonamide] gave a pIC50 of at least 7.00. With `COCC1(C)CN2C(=N1)N(Cc1cnn(C)c1)C(=O)c1cc(S(=O)(=O)NC3(C)CC3)ccc12` (centres unmarked) [Example 127, 2-(methoxymethyl)-2-methyl-4-((1-methyl-1H-pyrazol-4-yl)methyl)-N-(1-methylcyclopropyl)-5-oxo-1,2,4,5-tetrahydroimidazo[1,2-a]quinazoline-7-sulfonamide] the figure was 6.00 to 7.00. In the case of `[2H]C([2H])(c1cnn(C)c1)N1C(=O)c2cc(S(=O)(=O)NC3(C)CC3)cc(Cl)c2N2C1=NC[C@H]2C` [Example 128, (R)-9-chloro-4-(dideutero(1-methyl-1H-pyrazol-4-yl)methyl)-1-methyl-N-(1-methylcyclopropyl)-5-oxo-1,2,4,5-tetrahydroimidazo[1,2-a]quinazoline-7-sulfonamide] it was at least 7.00. With `C[C@@H]1CN=C2N(Cc3cnn(C)c3)C(=O)c3cc(S(=O)(=O)NC4(C)CC4)cc(Br)c3N21` [Example 129, (R)-9-bromo-1-methyl-4-((1-methyl-1H-pyrazol-4-yl)methyl)-N-(1-methylcyclopropyl)-5-oxo-1,2,4,5-tetrahydroimidazo[1,2-a]quinazoline-7-sulfonamide] the figure was at least 7.00; with `C[C@@H]1CN=C2N(Cc3cnn(C)c3)C(=O)c3cc(S(=O)(=O)NC4(C)CC4)cc(N4CCN(C(=O)N(C)C)CC4)c3N21` [Example 130, (R)—N,N-dimethyl-4-(1-methyl-4-((1-methyl-1H-pyrazol-4-yl)methyl)-7-(N-(1-methylcyclopropyl)sulfamoyl)-5-oxo-1,2,4,5-tetrahydroimidazo[1,2-a]quinazolin-9-yl)piperazine-1-carboxamide], at least 7.00. For the compound `C[C@@H]1CN=C2N(Cc3cnn(C)c3)C(=O)c3cc(S(=O)(=O)NC4(C)CC4)cc(C4=CCN(C)CC4)c3N21` [Example 131, (R)-1-methyl-9-(1-methyl-1,2,3,6-tetrahydropyridin-4-yl)-4-((1-methyl-1H-pyrazol-4-yl)methyl)-N-(1-methylcyclopropyl)-5-oxo-1,2,4,5-tetrahydroimidazo[1,2-a]quinazoline-7-sulfonamide], the pIC50 was at least 7.00. `[2H]C([2H])(c1cnn(C)c1)N1C(=O)c2cc(S(=O)(=O)NC3(C)CC3)cc(C)c2N2C1=NC[C@H]2C` [Example 132, (R)-1,9-dimethyl-4-((1-methyl-1H-pyrazol-4-yl)methyl-d2)-N-(1-methylcyclopropyl)-5-oxo-1,2,4,5-tetrahydroimidazo[1,2-a]quinazoline-7-sulfonamide] had a negative logarithm of the IC50 (pIC50) of at least 7.00.

`C[C@@H]1CN=C2N(Cc3cnn(C)c3)C(=O)c3cc(S(=O)(=O)NC4(C)CC4)cc(C4=CCOCC4)c3N21` [Example 133, (R)-9-(3,6-dihydro-2H-pyran-4-yl)-1-methyl-4-((1-methyl-1H-pyrazol-4-yl)methyl)-N-(1-methylcyclopropyl)-5-oxo-1,2,4,5-tetrahydroimidazo[1,2-a]quinazoline-7-sulfonamide] gave a negative-log IC50 (pIC50) of at least 7.00. With `[2H]C([2H])(c1cnn(C)c1)N1C(=O)c2cc(S(=O)(=O)NC3(C)CC3)cc(C(F)(F)F)c2N2C1=NC[C@H]2C` [Example 134, (R)-1-methyl-4-((1-methyl-1H-pyrazol-4-yl)methyl-d2)-N-(1-methylcyclopropyl)-5-oxo-9-(trifluoromethyl)-1,2,4,5-tetrahydroimidazo[1,2-a]quinazoline-7-sulfonamide] the figure was at least 7.00; with `C[C@@H]1CN=C2N(Cc3cnn(C)c3)C(=O)c3cc(S(=O)(=O)NC4(C)CC4)cc(-c4ccc(F)nc4)c3N21` [Example 135, (R)-9-(6-fluoropyridin-3-yl)-1-methyl-4-((1-methyl-1H-pyrazol-4-yl)methyl)-N-(1-methylcyclopropyl)-5-oxo-1,2,4,5-tetrahydroimidazo[1,2-a]quinazoline-7-sulfonamide], at least 7.00. With `C[C@@H]1CN=C2N(Cc3cnn(C)c3)C(=O)c3cc(S(=O)(=O)NC4(C)CC4)cc(-c4ccc(F)cc4)c3N21` [Example 136, (R)-9-(4-fluorophenyl)-1-methyl-4-((1-methyl-1H-pyrazol-4-yl)methyl)-N-(1-methylcyclopropyl)-5-oxo-1,2,4,5-tetrahydroimidazo[1,2-a]quinazoline-7-sulfonamide], the pIC50 is at least 7.00.

The compound `[2H]C([2H])(c1cnn(C)c1)N1C(=O)c2cc(S(=O)(=O)NC3(C)CC3)cc(Br)c2N2C1=NC[C@H]2C` [Example 137, (R)-9-bromo-1-methyl-4-((1-methyl-1H-pyrazol-4-yl)methyl-d2)-N-(1-methylcyclopropyl)-5-oxo-1,2,4,5-tetrahydroimidazo[1,2-a]quinazoline-7-sulfonamide] had a pIC50 of at least 7.00. In turn, `C[C@@H]1CN=C2N(Cc3cnn(C)c3)C(=O)c3cc(S(=O)(=O)NC4(C)CC4)cc(C#N)c3N21` [Example 138, (R)-9-cyano-1-methyl-4-((1-methyl-1H-pyrazol-4-yl)methyl)-N-(1-methylcyclopropyl)-5-oxo-1,2,4,5-tetrahydroimidazo[1,2-a]quinazoline-7-sulfonamide] showed a pIC50 of 6.00 to 7.00.
